Data as given in patent US10611756B2, “Method of treating pancreatitis using 1,4-benzoxazine derivatives” (GLAXOSMITHKLINE INTELLECTUAL PROPERTY DEVELOPMENT LIMITED, priority 2015, dated 2020).
pIC50: −log10 of the molar value. “And” between values parts separate entries of the source, which are not always exact repeats. Identical values can stand only once.

Molecular target: human KMO (Homo sapiens, UniProt O15229)
Assay: KMO MS Rapidfire assay (RapidFire High-Throughput Mass Spectrometry, Method 1 or Method 2)
Conditions: median pIC50, in at least one of the MS Rapidfire assays (Method 1 or 2); isolated human KMO-membranes, 10 μM Kynurenine, 200 μM NADPH; values exemplary only
Description: KMO inhibition can be determined by MS Rapidfire assay performed on the human cloned enzyme as described herein.
100 nL DMSO was dispensed into columns 6 and 18 for high and low controls, respectively, with prior inactivation of the enzyme in column 18 by pre-dispense of 30 μL of 0.5% (v/v) TFA.
Conditions for the assay of human KMO using isolated KMO-membranes were 50 mM HEPES, pH 7.5, 2 mM DTT, 1 mM EDTA, 100 μM CHAPS, 200 μM NADPH, 10 μM Kynurenine and 8 μg/ml KMO-membranes in a total reaction volume of 10 μL.
Assays were performed by initially dispensing 5 μL of a 2× Enzyme solution (16 μg/ml KMO-membranes in 50 mM HEPES, pH 7.5, 2 mM DTT, 2 mM EDTA, 200 μM CHAPS) into plates containing 100 nL compounds and incubating for 10 min at ambient temperature. […] All additions were made using a Multidrop Combi dispenser (Thermo Fisher Scientific).
Quenched assay plates were transferred to a high-throughput RapidFire200 integrated autosampler/solid-phase extraction (SPE) system (Agilent Technologies, Wakefield, Mass.). Samples were aspirated from each well for 500 ms and 10 μL was loaded directly onto a RapidFire micro-scale SPE C18 (type C) cartridge, which was washed for 3 s with HPLC-grade water containing 0.1% (v/v) formic acid to remove non-organic components. Analytes were then eluted into the mass spectrometer, in a 3 s elution cycle, using 80% (v/v) acetonitrile/water containing 0.1% (v/v) formic acid, and the cartridge was then equilibrated by washing with water containing 0.1% (v/v) formic acid for 500 ms. This gave a total cycle time of 7 s, enabling analysis of a 384-well plate in approximately 45 min.
Both Kyn and 3-HK were detected using a Sciex AP14000 triple quadrupole mass spectrometer (Applied Biosystems, Concord, Ontario, Canada), equipped with an electrospray interface and operated in positive ion mode. […] The mass spectrometer used an ESI voltage of 5500 V and a source temperature of 600° C., with a dwell time of 50 ms for each transition.
Using the integrated peak area for 3-HK data was analysed within ActivityBase (ID Business Solutions Ltd, Surrey, UK). Dose response curves were fitted to equation (1):
100 nL DMSO was dispensed into columns 6 and 18 for high and low controls, respectively, with prior inactivation of the enzyme in column 18 by pre-dispense of 50 μL of 0.5% (v/v) TFA.

Sequence of human KMO (O15229 whole entry): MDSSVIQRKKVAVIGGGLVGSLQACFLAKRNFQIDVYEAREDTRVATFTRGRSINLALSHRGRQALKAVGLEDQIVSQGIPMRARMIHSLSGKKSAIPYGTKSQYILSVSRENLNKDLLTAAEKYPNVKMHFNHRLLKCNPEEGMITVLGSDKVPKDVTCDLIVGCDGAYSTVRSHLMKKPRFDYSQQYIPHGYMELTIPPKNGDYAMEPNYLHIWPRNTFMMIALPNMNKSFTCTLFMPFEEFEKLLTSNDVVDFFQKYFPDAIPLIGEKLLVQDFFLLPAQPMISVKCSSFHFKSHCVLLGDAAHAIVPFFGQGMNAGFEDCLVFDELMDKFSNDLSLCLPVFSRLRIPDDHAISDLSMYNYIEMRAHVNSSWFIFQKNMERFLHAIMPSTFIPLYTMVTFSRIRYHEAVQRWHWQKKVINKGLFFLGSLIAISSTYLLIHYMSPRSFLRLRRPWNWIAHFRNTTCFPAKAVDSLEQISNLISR

pIC50	SMILES
≥ 7.50	CCC(Oc1cc2c(cc1Cl)N(CCC(=O)O)C(=O)CO2)c1ncc(C)cn1 (single isomer, unassigned) [Example 23, 3-{6-chloro-7-[1-(5-methylpyrimidin-2-yl)propoxy]-3-oxo-3,4-dihydro-2H-1,4-benzoxazin-4-yl}propanoic acid]
≥ 7.50	CC(Oc1cc2c(cc1Cl)N(CCC(=O)O)C(=O)CO2)c1ncccn1 (single isomer, unassigned) [Example 7, 2-amino-2-(hydroxymethyl)propane-1,3-diol; 3-{6-chloro-3-oxo-7-[1-(pyrimidin-2-yl)ethoxy]-3,4-dihydro-2H-1,4-benzoxazin-4-yl}propanoic acid]
≥ 7.50	CCC(Oc1cc2c(cc1Cl)N(CCC(=O)O)C(=O)CO2)c1ccc(C)nn1 (single isomer, unassigned) [Example 29, 3-{6-chloro-7-[1-(6-methylpyridazin-3-yl)propoxy]-3-oxo-3,4-dihydro-2H-1,4-benzoxazin-4-yl}propanoic acid]
≥ 7.50	CCC(Oc1cc2c(cc1Cl)N(CCC(=O)O)C(=O)CO2)c1cccnn1 (single isomer, unassigned) [Example 28, 3-{6-chloro-3-oxo-7-[1-(pyridazin-3-yl)propoxy]-3,4-dihydro-2H-1,4-benzoxazin-4-yl}propanoic acid]
≥ 7.50	CC(Oc1cc2c(cc1Cl)N(CCC(=O)O)C(=O)CO2)c1ncco1 (single isomer, unassigned) [Example 4, 2-amino-2-(hydroxymethyl)propane-1,3-diol; 3-{6-chloro-7-[1-(1,3-oxazol-2-yl)ethoxy]-3-oxo-3,4-dihydro-2H-1,4-benzoxazin-4-yl}propanoic acid]
≥ 7.50	O=C(O)CCN1C(=O)COc2cc(OCc3ccccn3)c(Cl)cc21 [Example 9, 3-[6-chloro-3-oxo-7-(pyridin-2-ylmethoxy)-3,4-dihydro-2H-1,4-benzoxazin-4-yl]propanoic acid]

Second part, the compound before the results:

SMILES	pIC50
CCC(Oc1cc2c(cc1Cl)N(CCC(=O)O)C(=O)CO2)c1ncc(Cl)cn1 (single isomer, unassigned) [Example 26, 3-{6-chloro-7-[1-(5-chloropyrimidin-2-yl)propoxy]-3-oxo-3,4-dihydro-2H-1,4-benzoxazin-4-yl}propanoic acid]	≥ 7.50
CCC(Oc1cc2c(cc1Cl)N(CCC(=O)O)C(=O)CO2)c1ncccn1 (single isomer, unassigned) [Example 21, 3-{6-chloro-3-oxo-7-[1-(pyrimidin-2-yl)propoxy]-3,4-dihydro-2H-1,4-benzoxazin-4-yl}propanoic acid]	≥ 7.50
Cc1ncc(C(C)Oc2cc3c(cc2Cl)N(CCC(=O)O)C(=O)CO3)o1 (racemic) [Example 3, 2-amino-2-(hydroxymethyl)propane-1,3-diol; 3-{6-chloro-7-[1-(2-methyl-1,3-oxazol-5-yl)ethoxy]-3-oxo-3,4-dihydro-2H-1,4-benzoxazin-4-yl}propanoic acid]	≥ 7.50
CC[C@@H](Oc1cc2c(cc1Cl)N(CCC(=O)O)C(=O)CO2)c1ccc(Cl)cn1 [Example 1, (R)-3-(6-Chloro-7-(1-(5-chloropyridin-2-yl)propoxy)-3-oxo-2H-benzo[b][1,4]oxazin-4(3H)-yl)propanoic Acid]	≥ 7.50 and 9.00
CC(Oc1cc2c(cc1Cl)N(CCC(=O)O)C(=O)CO2)c1ncc[nH]1 (racemic) [Example 6, 2-amino-2-(hydroxymethyl)propane-1,3-diol; 3-{6-chloro-7-[1-(1H-imidazol-2-yl)ethoxy]-3-oxo-3,4-dihydro-2H-1,4-benzoxazin-4-yl}propanoic acid]	≥ 7.50
